Key:
FAK = FAK (Homo sapiens (Human), UniProt Q05397); test: Biochemical assay for FAK activity (LANCE TR-FRET, ULight-poly Glu,Ala,Tyr substrate); conditions: GST-tagged FAK, 120 min reaction
Method: (§1) Biochemical Assay for FAK/Pyk2 Activity
(§2) GST-tagged FAK was purchased from Invitrogen (PV3832). GST-tagged PYK2 was purchased from Invitrogen (PV4567). The activity of FAK/PYK2 was measured by monitoring the phosphorylation of a fluorophore labeled ULight-poly Glu, Ala, Tyr (1:1:1) peptide substrate from Perkin Elmer (TRF0101) in the presence of ATP. The phosphorylated tyrosine residue was recognized by a LANCE Europium chelate labeled anti-phosphotyrosine (PY20) antibody from Perkin Elmer (AD0066). This brought the fluorophore and europium chelate in close proximity ([…]) that upon excitation at 320 nm by an Envision (PerkinElmer), energy can be transferred from the donor Europium chelate to the acceptor fluorophore. […] The strength of the signal was, therefore, directly proportional to the FAK/PYK2 activity.
(§3) To measure inhibitory activity of FAK/PYK2 inhibitors, compounds were first prepare as a 1 mM stock in 100% DMSO and 3-fold serial dilution was performed in a 96-well plate (Corning, 3897) to generate 12 different concentration of 100× stock. A 5 μl of 100× stock of each concentration was added to wells containing 95 μl of 1× reaction buffer (40 mM Tris, pH7.5, […], 1 mM DTT and 1 mM CHAPS) to generate 5× stock. Then 2 μl of 5× stock of each concentration was added to a 384 wells-OptiPlate (PerkinElmer, 6007299).
(§4) For FAK, 4 μl of 2.5 nM FAK, 1 ul of 8 μg/μl BSA and 1.5 μl of 666 nM ULight-poly Glu, Ala, Tyr (1:1:1) peptide substrate, prepared in above reaction buffer, were added to each well. The reaction was initiated by adding 1.5 μl of 33.3 μM ATP. The reaction was allowed to proceed for 120 min before being quenched with 5 μl of 40 mM EDTA stop buffer prepared in 1×LANCE detection buffer (PerkinElmer, CR97-100).
(§5) Upon quenching of the reaction, 5 μl of 8 nM anti-phosphotyrosine antibody was added to each well and incubated for 60 minutes. The plate was measured using an Envision (PerkinElmer) based on the theory mentioned above.

PYK2 = PYK2 (Homo sapiens (Human), UniProt Q14289); test: Biochemical assay for PYK2 activity (LANCE TR-FRET, ULight-poly Glu,Ala,Tyr substrate); conditions: GST-tagged PYK2, 40 min reaction
Sequence of PYK2 (Q14289 whole entry): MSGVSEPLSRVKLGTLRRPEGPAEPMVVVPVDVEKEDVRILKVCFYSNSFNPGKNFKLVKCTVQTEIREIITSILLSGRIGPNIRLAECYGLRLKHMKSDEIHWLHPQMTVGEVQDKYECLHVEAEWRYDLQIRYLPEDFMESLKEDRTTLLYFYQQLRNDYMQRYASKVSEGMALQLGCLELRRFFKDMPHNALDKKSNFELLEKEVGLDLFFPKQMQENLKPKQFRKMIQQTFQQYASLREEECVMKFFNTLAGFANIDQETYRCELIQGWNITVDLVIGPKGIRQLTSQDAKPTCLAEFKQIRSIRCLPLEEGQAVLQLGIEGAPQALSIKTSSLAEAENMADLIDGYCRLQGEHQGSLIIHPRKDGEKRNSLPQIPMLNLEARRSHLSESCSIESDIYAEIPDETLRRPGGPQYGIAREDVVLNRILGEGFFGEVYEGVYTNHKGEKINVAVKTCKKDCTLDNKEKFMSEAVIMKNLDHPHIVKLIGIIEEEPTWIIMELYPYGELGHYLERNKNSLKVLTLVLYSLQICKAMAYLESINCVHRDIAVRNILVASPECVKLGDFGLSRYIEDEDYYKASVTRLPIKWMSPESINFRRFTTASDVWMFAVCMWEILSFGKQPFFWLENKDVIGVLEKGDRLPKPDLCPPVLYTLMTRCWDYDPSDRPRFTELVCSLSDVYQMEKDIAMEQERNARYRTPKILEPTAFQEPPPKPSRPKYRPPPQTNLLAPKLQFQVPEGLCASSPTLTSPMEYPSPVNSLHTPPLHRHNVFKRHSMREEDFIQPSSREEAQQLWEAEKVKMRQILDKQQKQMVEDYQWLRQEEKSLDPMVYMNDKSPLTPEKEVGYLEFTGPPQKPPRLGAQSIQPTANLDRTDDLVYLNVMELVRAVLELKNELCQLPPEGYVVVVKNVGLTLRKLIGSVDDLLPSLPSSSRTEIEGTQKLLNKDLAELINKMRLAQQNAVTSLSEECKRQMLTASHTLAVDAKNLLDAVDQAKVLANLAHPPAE
Method: as §1, §2, §3
as §4, with “PYK2, 5” for “FAK, 4”, “2” for “2.5”, “PYK2” for “FAK, 1 ul of 8 μg/μl BSA”, “46.6” for “33.3”, “40” for “120”
as §5

Sequence of FAK (Q05397 whole entry): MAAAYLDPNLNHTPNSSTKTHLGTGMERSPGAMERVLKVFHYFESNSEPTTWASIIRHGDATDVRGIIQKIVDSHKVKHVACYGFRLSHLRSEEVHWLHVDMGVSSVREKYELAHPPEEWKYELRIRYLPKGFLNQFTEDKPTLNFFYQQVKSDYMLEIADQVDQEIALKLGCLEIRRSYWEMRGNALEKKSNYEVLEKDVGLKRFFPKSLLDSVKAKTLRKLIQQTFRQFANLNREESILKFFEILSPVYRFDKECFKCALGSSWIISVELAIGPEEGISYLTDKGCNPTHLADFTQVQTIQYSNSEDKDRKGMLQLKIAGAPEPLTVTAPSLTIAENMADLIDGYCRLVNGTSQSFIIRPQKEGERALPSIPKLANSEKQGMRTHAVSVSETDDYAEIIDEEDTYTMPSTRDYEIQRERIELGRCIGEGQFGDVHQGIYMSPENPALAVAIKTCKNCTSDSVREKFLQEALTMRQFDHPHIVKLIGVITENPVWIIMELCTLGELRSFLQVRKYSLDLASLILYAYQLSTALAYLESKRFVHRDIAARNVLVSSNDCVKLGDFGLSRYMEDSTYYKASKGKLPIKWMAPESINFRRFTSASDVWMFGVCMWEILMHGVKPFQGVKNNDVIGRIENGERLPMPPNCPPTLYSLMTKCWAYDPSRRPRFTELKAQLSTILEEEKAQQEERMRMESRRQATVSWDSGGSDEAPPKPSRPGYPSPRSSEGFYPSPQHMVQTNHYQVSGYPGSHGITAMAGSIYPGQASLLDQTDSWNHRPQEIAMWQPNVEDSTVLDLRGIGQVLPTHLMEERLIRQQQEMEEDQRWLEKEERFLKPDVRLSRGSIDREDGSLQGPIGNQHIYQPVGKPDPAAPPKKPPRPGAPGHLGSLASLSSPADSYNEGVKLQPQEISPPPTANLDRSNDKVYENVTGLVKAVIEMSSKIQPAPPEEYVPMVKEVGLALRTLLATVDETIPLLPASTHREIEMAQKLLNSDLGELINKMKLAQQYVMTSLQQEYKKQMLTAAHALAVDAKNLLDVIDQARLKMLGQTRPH

SMILES	IC50 (FAK)	IC50 (PYK2)
CNC(=O)c1ccccc1Nc1nc(Nc2ccc(N3CCOCC3)cc2OC)nc2c1C(C)CN2 (racemic) [Example 23, (±)-2-(2-(2-methoxy-4-morpholinophenylamino)-5-methyl-6,7-dihydro-5H-pyrrolo[2,3-d]pyrimidin-4-ylamino)-N-methylbenzamide]	< 50 nM	< 50 nM
COc1cc(N2CCOCC2)ccc1Nc1nc2c(c(Nc3ccccc3C(=O)N3CCCC3)n1)C(C)CN2 (racemic) [Example 24, (±)-(2-(2-(2-methoxy-4-morpholinophenylamino)-5-methyl-6,7-dihydro-5H-pyrrolo[2,3-d]pyrimidin-4-ylamino)phenyl)(pyrrolidin-1-yl)methanone]	< 200 nM	< 500 nM
CNS(=O)(=O)c1ccccc1Nc1nc(Nc2ccc(N3CCOCC3)cc2OC)nc2c1C(C)CN2 (racemic) [Example 25, (±)-2-(2-(2-methoxy-4-morpholinophenylamino)-5-methyl-6,7-dihydro-5H-pyrrolo[2,3-d]pyrimidin-4-ylamino)-N-methylbenzenesulfonamide]	< 50 nM	< 20 nM
CCCNS(=O)(=O)c1ccccc1Nc1nc(Nc2ccc(N3CCOCC3)cc2OC)nc2c1C(C)CN2 (racemic) [Example 26, (±)-2-(2-(2-methoxy-4-morpholinophenylamino)-5-methyl-6,7-dihydro-5H-pyrrolo[2,3-d]pyrimidin-4-ylamino)-N-propylbenzenesulfonamide]	< 20 nM	< 20 nM
COc1cc(N2CCOCC2)ccc1Nc1nc2c(c(Nc3ccccc3S(=O)(=O)NC3CCC3)n1)C(C)CN2 (racemic) [Example 27, (±)-N-cyclobutyl-2-(2-(2-methoxy-4-morpholinophenylamino)-5-methyl-6,7-dihydro-5H-pyrrolo[2,3-d]pyrimidin-4-ylamino)benzenesulfonamide]	< 20 nM	< 20 nM
COc1cc(N2CCOCC2)ccc1Nc1nc2c(c(Nc3ccccc3S(=O)(=O)NC3CCCC3)n1)C(C)CN2 (racemic) [Example 28, (±)-N-cyclopentyl-2-(2-(2-methoxy-4-morpholinophenylamino)-5-methyl-6,7-dihydro-5H-pyrrolo[2,3-d]pyrimidin-4-ylamino)benzenesulfonamide]	< 300 nM	< 50 nM
COc1cc(N2CCOCC2)ccc1Nc1nc2c(c(Nc3ccccc3S(=O)(=O)NC3CCCCC3)n1)C(C)CN2 (racemic) [Example 29, (±)-N-cyclohexyl-2-(2-(2-methoxy-4-morpholinophenylamino)-5-methyl-6,7-dihydro-5H-pyrrolo[2,3-d]pyrimidin-4-ylamino)benzenesulfonamide]	< 50 nM	< 500 nM
COc1cc(N2CCOCC2)ccc1Nc1nc2c(c(Nc3ccccc3NC(C)=O)n1)C(C)CN2 (racemic) [Example 30, (±)-N-(2-(2-(2-methoxy-4-morpholinophenylamino)-5-methyl-6,7-dihydro-5H-pyrrolo[2,3-d]pyrimidin-4-ylamino)phenyl)acetamide]	< 200 nM	< 200 nM
COc1cc(N2CCOCC2)ccc1Nc1nc2c(c(Nc3ccccc3N(C)S(C)(=O)=O)n1)C(C)CN2 (racemic) [Example 31, (±)-N-(2-(2-(2-methoxy-4-morpholinophenylamino)-5-methyl-6,7-dihydro-5H-pyrrolo[2,3-d]pyrimidin-4-ylamino)phenyl)-N-methylmethanesulfonamide]	< 30 nM	< 20 nM
COc1cc(N2CCOCC2)ccc1Nc1nc(NCc2ccccc2N(C)S(C)(=O)=O)c2c(n1)NCC2C (racemic) [Example 32, (±)-N-(2-((2-(2-methoxy-4-morpholinophenylamino)-5-methyl-6,7-dihydro-5H-pyrrolo[2,3-d]pyrimidin-4-ylamino)methyl)phenyl)-N-methylmethanesulfonamide]	< 20 nM	> 1000 nM
COc1cc(N2CCOCC2)ccc1Nc1nc2c(c(Nc3cccc(C)n3)n1)C(C)CN2 (racemic) [Example 33, (±)-N^2-(2-methoxy-4-morpholinophenyl)-5-methyl-N^4-(6-methylpyridin-2-yl)-6,7-dihydro-5H-pyrrolo[2,3-d]pyrimidine-2,4-diamine]	< 500 nM	< 1000 nM
COc1cc(N2CCOCC2)ccc1Nc1nc2c(c(Nc3ccc(F)c(F)c3)n1)C(C)CN2 (racemic) [Example 34, (±)-N^4-(3,4-difluorophenyl)-N^2-(2-methoxy-4-morpholinophenyl)-5-methyl-6,7-dihydro-5H-pyrrolo[2,3-d]pyrimidine-2,4-diamine]	> 1000 nM	< 1000 nM
CNC(=O)c1ccccc1Nc1nc(Nc2ccc(N3CCOCC3)cc2OC)nc2c1CCN2 [Example 1, 2-(2-(2-methoxy-4-morpholinophenylamino)-6,7-dihydro-5H-pyrrolo[2,3-d]pyrimidin-4-ylamino)-N-methylbenzamide]	< 100 nM	< 100 nM
CNC(=O)c1ccc2c(c1Nc1nc(Nc3ccc(N4CCOCC4)cc3OC)nc3c1CCN3)OCO2 [Example 2, 4-(2-(2-methoxy-4-morpholinophenylamino)-6,7-dihydro-5H-pyrrolo[2,3-d]pyrimidin-4-ylamino)-N-methylbenzo[d][1,3]dioxole-5-carboxamide]	> 1000 nM	> 1000 nM
COc1cc(N2CCOCC2)ccc1Nc1nc2c(c(Nc3ccccc3C(=O)N3CCCC3)n1)CCN2 [Example 3, (2-(2-(2-methoxy-4-morpholinophenylamino)-6,7-dihydro-5H-pyrrolo[2,3-d]pyrimidin-4-ylamino)phenyl)(pyrrolidin-1-yl)methanone]	> 1000 nM	> 1000 nM
CNS(=O)(=O)c1ccccc1Nc1nc(Nc2ccc(N3CCOCC3)cc2OC)nc2c1CCN2 [Example 4, 2-(2-(2-methoxy-4-morpholinophenylamino)-6,7-dihydro-5H-pyrrolo[2,3-d]pyrimidin-4-ylamino)-N-methylbenzenesulfonamide]	< 20 nM	< 50 nM
CCCNS(=O)(=O)c1ccccc1Nc1nc(Nc2ccc(N3CCOCC3)cc2OC)nc2c1CCN2 [Example 5, 2-(2-(2-methoxy-4-morpholinophenylamino)-6,7-dihydro-5H-pyrrolo[2,3-d]pyrimidin-4-ylamino)-N-propylbenzenesulfonamide]	< 20 nM	< 20 nM
COc1cc(N2CCOCC2)ccc1Nc1nc2c(c(Nc3ccccc3S(=O)(=O)NC3CCC3)n1)CCN2 [Example 6, N-cyclobutyl-2-(2-(2-methoxy-4-morpholinophenylamino)-6,7-dihydro-5H-pyrrolo[2,3-d]pyrimidin-4-ylamino)benzenesulfonamide]	< 20 nM	< 20 nM
COc1cc(N2CCOCC2)ccc1Nc1nc2c(c(Nc3ccccc3S(=O)(=O)NC3CCCC3)n1)CCN2 [Example 7, N-cyclopentyl-2-(2-(2-methoxy-4-morpholinophenylamino)-6,7-dihydro-5H-pyrrolo[2,3-d]pyrimidin-4-ylamino)benzenesulfonamide]	< 50 nM	< 100 nM
COc1cc(N2CCOCC2)ccc1Nc1nc2c(c(Nc3ccccc3S(=O)(=O)NC3CCCCC3)n1)CCN2 [Example 8, N-cyclohexyl-2-(2-(2-methoxy-4-morpholinophenylamino)-6,7-dihydro-5H-pyrrolo[2,3-d]pyrimidin-4-ylamino)benzenesulfonamide]	< 200 nM	< 500 nM
